{
  "source": "patent US20120263754A1",
  "about": "“Methods for Enhancing Immunogen Specific Immune Responses by Vectored Vaccines” (priority 2011, published 2012)",
  "system": "CD8 T cell response to the epitope AH1A5",
  "assay": "Adjuvant mixed with DC-NILV encoding AH1A5 and administered together subcutaneously; ICS/FACS",
  "format": "in vivo, BALB/c mice",
  "conditions": "adjuvant mixed with DC-NILV AH1A5 1 μg p24, s.c.; 4 or 20 μg GLA, 4 μg LPS; spleen cells day 10",
  "procedure": "FIG. 2 illustrates the effect of two adjuvants, GLA and lipopolysaccharide (LPS), on the immune response to the CD8 T cell epitope AH1A5. The lentiviral vector encoding AH1A5 (SinVarl FUW AH1A5 (1 μg p24)) was mixed with PBS (control group), 4 μg GLA, 20 μg GLA, or 4 μg LPS and then administered subcutaneously (s.c.) to groups of BALB/C mice. After 10 days, spleen cells were isolated from animals in each group, and the CD8 T cell response was evaluated by determining the level of TNF-α and IFN-γ by intracellular cytokine staining (ICS) followed by fluorescence activated cell sorting (FACS). The values shown are the mean percentage ±SEM of CD8 T cells that are positive for IFN-γ. Data are also shown from spleen cells obtained from mice that were not injected with the lentiviral vector (no LV).\nThe effect of two adjuvants, GLA and lipopolysaccharide (LPS), on the immune response to the CD8 T cell epitope AH1A5 was determined. DC-NILV encoding AH1A5 (1 μg p24) was mixed with PBS (control group), 4 μg GLA, 20 μg GLA, or 4 μg lipopolysaccaride (LPS) and then administered subcutaneously (s.c.) to groups of BALB/c mice. After 10 days, spleen cells were isolated from animals in each group, and the CD8 T cell response was evaluated by determining the level of TNF-α and IFN-γ by intracellular cytokine staining (ICS) followed by fluorescence activated cell sorting (FACS). […]",
  "data": [
    {"substance": "lipopolysaccharide [LPS]", "values": [
      {"measurement": "effect of coadministered adjuvant on vaccine-induced immune responses (CD8 T cells, TNF-α and IFN-γ)", "value": "inhibitory effect"}
    ]}
  ]
}
